In patent US6936457B1 (Merck & Co., Inc., priority 1990, dated 2005):
Several values for one entry are separate records, joined by “and”; a condition that tells them apart may be missing. Equal entries are not always repeated. Where two headings read alike, the source gives them in different places.

Columns and labels:
[1] = molecular target: human neuronal nicotinic AChR α7 subunit (Homo sapiens, UniProt P36544); assay type: cell-based
IMR32 = assay: 86Rb ion-flux assay, IMR32 positive control cells; assay type: cell-based, human
PC12 = assay: 86Rb ion-flux assay, PC12 positive control cells; assay type: cell-based
[2] = molecular target: T1, human neuronal nicotinic AChR α3 and β4 subunits (Homo sapiens, UniProt P30926+P32297); assay type: cell-based
T1 construct: expressed in transfected cells; host or cells: Xenopus oocytes injected with in vitro transcripts

[3] = molecular target: human neuronal nicotinic AChR α3 and β2 subunits (Homo sapiens, UniProt P17787+P32297); assay type: cell-based
Sequence of human neuronal nicotinic AChR α3 and β2 subunits (P17787 26-502, one chain of several): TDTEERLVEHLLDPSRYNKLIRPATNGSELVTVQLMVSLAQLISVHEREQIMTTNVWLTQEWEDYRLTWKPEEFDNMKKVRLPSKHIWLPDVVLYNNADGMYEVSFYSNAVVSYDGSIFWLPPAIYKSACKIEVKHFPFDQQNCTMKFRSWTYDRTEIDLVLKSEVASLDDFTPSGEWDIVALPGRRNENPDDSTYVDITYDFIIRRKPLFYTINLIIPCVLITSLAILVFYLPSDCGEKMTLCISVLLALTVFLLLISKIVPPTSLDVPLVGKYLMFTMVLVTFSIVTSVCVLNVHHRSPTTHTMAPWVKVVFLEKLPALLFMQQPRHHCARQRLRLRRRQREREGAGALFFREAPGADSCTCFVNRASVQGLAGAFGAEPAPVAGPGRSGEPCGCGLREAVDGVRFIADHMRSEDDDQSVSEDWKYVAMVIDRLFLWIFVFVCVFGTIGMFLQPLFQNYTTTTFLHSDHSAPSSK

human α3β2α5 nAChR = human α3β2α5 nAChR (Homo sapiens, UniProt P17787+P30532+P32297, D398N); assay type: cell-based
Sequence of human α3β2α5 nAChR (P32297 32-505): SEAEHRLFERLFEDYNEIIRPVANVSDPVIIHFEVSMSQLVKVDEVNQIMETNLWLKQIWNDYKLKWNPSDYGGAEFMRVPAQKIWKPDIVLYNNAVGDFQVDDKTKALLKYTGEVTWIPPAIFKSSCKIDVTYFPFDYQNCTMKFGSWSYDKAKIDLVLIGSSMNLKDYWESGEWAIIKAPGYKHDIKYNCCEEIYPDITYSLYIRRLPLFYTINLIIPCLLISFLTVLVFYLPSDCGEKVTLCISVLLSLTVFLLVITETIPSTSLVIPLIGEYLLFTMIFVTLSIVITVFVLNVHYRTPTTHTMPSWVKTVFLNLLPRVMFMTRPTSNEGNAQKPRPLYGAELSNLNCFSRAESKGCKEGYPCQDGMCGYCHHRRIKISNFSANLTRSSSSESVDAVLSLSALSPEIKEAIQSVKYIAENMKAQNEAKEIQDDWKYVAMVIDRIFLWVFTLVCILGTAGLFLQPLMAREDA
Sequence of human α3β2α5 nAChR (P17787 26-502): as the sequence (P17787 26-502, one chain of several) above

[4] = molecular target: T1, human neuronal nicotinic AChR α3 and β4 subunits; assay: Two-electrode voltage clamp of Xenopus oocytes injected with α3 and β4 transcripts; assay type: cell-based
human α7 nAChR [5] = molecular target: T2, human α7 nAChR (Homo sapiens, UniProt P36544); assay type: binding
T2 sequence (P36544 23-502): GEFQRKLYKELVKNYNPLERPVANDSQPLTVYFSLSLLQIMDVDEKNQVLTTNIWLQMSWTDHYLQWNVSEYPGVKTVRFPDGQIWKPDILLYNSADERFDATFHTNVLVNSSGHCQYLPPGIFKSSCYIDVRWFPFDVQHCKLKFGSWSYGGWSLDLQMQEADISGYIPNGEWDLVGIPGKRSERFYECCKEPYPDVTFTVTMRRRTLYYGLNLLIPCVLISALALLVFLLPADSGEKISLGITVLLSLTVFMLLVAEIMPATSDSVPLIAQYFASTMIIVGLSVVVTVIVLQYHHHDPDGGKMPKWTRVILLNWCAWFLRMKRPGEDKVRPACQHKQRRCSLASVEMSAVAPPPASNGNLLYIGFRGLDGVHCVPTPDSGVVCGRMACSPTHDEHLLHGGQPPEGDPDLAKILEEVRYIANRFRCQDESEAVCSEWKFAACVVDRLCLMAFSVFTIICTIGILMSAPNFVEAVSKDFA

human α7 nAChR [6] = molecular target: T2, human α7 nAChR; assay type: cell-based
[7] = molecular target: T3, human neuronal nicotinic AChR α3 subunit (Homo sapiens, UniProt P32297); assay: Two-electrode voltage clamp of Xenopus oocytes injected with α3 transcript alone; assay type: cell-based
T3 construct: expressed in transfected cells; host or cells: Xenopus oocytes injected with in vitro transcript

[8] = molecular target: T4, human neuronal nicotinic AChR β4 subunit (Homo sapiens, UniProt P30926); assay: Two-electrode voltage clamp of Xenopus oocytes injected with β4 transcript alone; assay type: cell-based
T4 construct: expressed in transfected cells; host or cells: Xenopus oocytes injected with in vitro transcript (KEβ4.6/pGEM or pCMV-KEβ4)
T4 sequence (P30926 22-498): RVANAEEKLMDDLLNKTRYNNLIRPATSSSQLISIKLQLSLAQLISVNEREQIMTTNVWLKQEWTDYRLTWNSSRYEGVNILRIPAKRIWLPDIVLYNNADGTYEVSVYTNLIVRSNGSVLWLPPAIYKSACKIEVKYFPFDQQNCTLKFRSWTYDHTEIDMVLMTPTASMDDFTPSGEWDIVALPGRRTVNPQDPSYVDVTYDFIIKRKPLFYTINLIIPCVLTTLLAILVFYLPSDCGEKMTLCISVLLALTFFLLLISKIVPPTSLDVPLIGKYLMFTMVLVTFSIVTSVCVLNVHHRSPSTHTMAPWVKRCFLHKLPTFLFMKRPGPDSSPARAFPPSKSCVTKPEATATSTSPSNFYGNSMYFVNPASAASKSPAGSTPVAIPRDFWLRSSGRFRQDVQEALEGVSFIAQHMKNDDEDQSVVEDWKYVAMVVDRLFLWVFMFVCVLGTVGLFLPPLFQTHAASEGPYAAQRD

[9] = Homo sapiens, IMR-32, IMR32, agonists and antagonists, read-out: EC50
[10] = Rattus norvegicus, PC-12, PC12, agonists and antagonists, read-out: EC50

Sequence of human neuronal nicotinic AChR α7 subunit (P36544 23-502): as the sequence (P36544 23-502) above

COc1cc2c3cc1Oc1cc(ccc1O)C[C@@H]1c4c(cc(OC)c(O)c4Oc4ccc(cc4)C[C@@H]3N(C)CC2)CC[N+]1(C)C [d-tubocurarine]
block of the response to ACh [1]: blocked | EC50 (IMR32; read-out: EC50): 2.5 µM | EC50 (PC12; read-out: EC50): 0.81 µM | nicotine-stimulated increase in fluorescence in presence of antagonist [2]: not observed | block of the current response to ACh [3]: blocked | nicotine-stimulated increase in fluorescence in presence of antagonist (human α3β2α5 nAChR): not observed | block of the responses to ACh and nicotine [4]: reproducibly blocked | blockage of the response to ACh [4]: complete blockage | reversibility of the inhibition [4]: appeared to be reversible

α-bungarotoxin
[3H]-MLA binding displaced (human α7 nAChR [5]): approximately 65% | IC50 (human α7 nAChR [5]; read-out: IC50, displacement of [3H]-MLA binding): 0.003 µM

CNC1(C)C2CCC(C2)C1(C)C (stereo not shown) [mecamylamine]
EC50 (IMR32; [9]): 0.11 µM | EC50 (PC12; [10]): 0.42 µM | block of the responses to ACh, nicotine and cytisine [4]: at least partially blocked

C[N+](C)(C)CCCCCC[N+](C)(C)C [hexamethonium]
EC50 (IMR32; Homo sapiens, IMR-32): 22 µM

CN1[C@@H]2CC[C@H]1C[C@@H](OC(=O)C(CO)c1ccccc1)C2 (stereo partly shown) [atropine]
EC50 (IMR32; Homo sapiens, IMR-32): 43 µM

Clc1ccc(C2CC3CCC2N3)cn1 (stereo not shown) [epibatidine]
response of individual cells (human α7 nAChR [6]): homogenous manner

O=c1cccc2n1C[C@@H]1CNC[C@H]2C1 [cytisine]
response of oocytes to application of agonist [7]: did not respond | response of oocytes to application of agonist [8]: did not respond | Maximum response (IMR32): 10 X^e | EC50 (IMR32; Homo sapiens, IMR-32): 14 µM | Maximum response (PC12): 3.6 X^d | EC50 (PC12; Rattus norvegicus, PC-12): 57 µM | Number of oocytes responding [4]: 3 of 4 and 5 of 5 and 6 of 6 | inward currents in response to agonist [4]: detectable inward currents | relative potency of the agonists [4]: cytisine>ACh>nicotine

CN1CCCC1c1cccnc1 (stereo not shown) [nicotine]
Number of oocytes responding [7]: 0 of 8 | response of oocytes to application of agonist [7]: did not respond | Number of oocytes responding [8]: 0 of 9 | response of oocytes to application of agonist [8]: did not respond | EC50 (IMR32; [9]): 18 µM | Maximum response (IMR32; IMR32, at 200 μM nicotine, 3 mM CCh, 100 μM cytisine (footnotes)): 7.7 X^a | Maximum response (PC12; PC12, at 200 μM nicotine, 300 μM CCh, 1 mM cytisine (footnotes)): 2.1 X^a | EC50 (PC12; [10]): 52 µM | fluorescence (intracellular calcium) after addition of agonist [2]: increased dramatically | Number of oocytes responding [3]: 2 of 9 and 0 of 9 | fluorescence (intracellular calcium) after addition of agonist (human α3β2α5 nAChR): increased dramatically | Number of oocytes responding [4]: 4 of 5 and 3 of 4 and 5 of 5 and 6 of 6 | inward currents in response to agonist [4]: detectable inward currents

C[N+](C)(C)CCOC(N)=O.[Cl-] [CCh, carbamylcholine]
Maximum response (IMR32): 7.6 X^c | EC50 (IMR32; read-out: EC50): 230 µM | Maximum response (PC12): 3.3 X^b | EC50 (PC12; read-out: EC50): 35 µM
